{
  "source": "paper PMC2409616",
  "about": "(British Journal of Cancer, 2004)",
  "key": {"[1]": {"tested_on": "V79^puro cells (NTR−ve)"}, "[2]": {"tested_on": "V79-NTR^puro cells"}, "[3]": {"tested_on": "UV4"}, "[4]": {"tested_on": "SiHa", "test": "cells", "conditions": "Homo sapiens, 4 h, read-out: IC50 following 4 h drug exposure"}, "[5]": {"tested_on": "WiDr", "test": "cells", "conditions": "Homo sapiens, 4 h, read-out: IC50 following 4 h drug exposure"}, "[6]": {"tested_on": "V79^puro", "test": "cells", "conditions": "Cricetulus griseus, 4 h, read-out: IC50 following 4 h drug exposure"}, "[7]": {"tested_on": "AA8", "test": "cells", "conditions": "Cricetulus griseus, CHO-AA8, 4 h, read-out: IC50 following 4 h drug exposure"}, "[8]": {"tested_on": "UV4", "test": "cells", "conditions": "Cricetulus griseus, UV4, 4 h, read-out: IC50 following 4 h drug exposure"}, "[9]": {"tested_on": "SiHa cells", "test": "Metabolic consumption of prodrug in stirred single-cell suspensions (loss from extracellular medium)", "conditions": "corrected to 10^6 cells ml^−1, mean±s.e.m., 2–3 cell suspensions"}, "[10]": {"tested_on": "SiHa-NTR^puro cells", "test": "Metabolic consumption of prodrug in stirred single-cell suspensions (loss from extracellular medium)", "conditions": "corrected to 10^6 cells ml^−1, mean±s.e.m., 2–3 cell suspensions"}, "[11]": {"tested_on": "UV4 cells"}, "[12]": {"tested_on": "SiHa-NTR^puro MCLs"}, "[13]": {"tested_on": "SiHa MCLs", "test": "Transport through multicellular layers (two-chamber diffusion apparatus)", "conditions": "100 μM in donor compartment"}},
  "note": "Where “and” joins values, the source holds several entries; their conditions need not be identical. Equal values may be shown once. Read-outs that look alike come from different tables or passages of the source.",
  "data": [
    {"smiles": "NC(=O)c1cc(N(CCCl)CCCl)c([N+](=O)[O-])cc1[N+](=O)[O-]", "note": "[compound 7, 5-[N,N-bis(2-chloroethyl)amino]-2,4-dinitrobenzamide]", "values": [
      {"measurement": "First-order rate constant k of metabolic consumption", "setting": "[1]; V79^puro, corrected to 10^6 cells ml^−1, mean±s.e.m., 2–3 cell suspensions", "value": "0.0020 ± 0.0001", "unit": "h⁻¹"},
      {"measurement": "First-order rate constant k of metabolic consumption", "setting": "[2]; V79-NTR^puro, corrected to 10^6 cells ml^−1, mean±s.e.m., 2–3 cell suspensions", "value": "0.17 ± 0.003", "unit": "h⁻¹"},
      {"measurement": "AA8/UV4 intra-experiment IC50 ratio", "setting": "[3]", "value": "ca 1.3"},
      {"measurement": "IC50", "setting": "[4]", "value": "> 800", "unit": "µM"},
      {"measurement": "IC50", "setting": "[5]", "value": "> 1000", "unit": "µM"},
      {"measurement": "IC50", "setting": "[6]", "value": "> 500", "unit": "µM"},
      {"measurement": "IC50", "setting": "[7]", "value": "~1000", "unit": "µM"},
      {"measurement": "IC50", "setting": "[8]", "value": "761 ± 89", "unit": "µM"},
      {"measurement": "First-order rate constant k of metabolic consumption", "setting": "[9]", "value": "<0.001", "unit": "h⁻¹"},
      {"measurement": "First-order rate constant k of metabolic consumption", "setting": "[10]", "value": "0.6 ± 0.2", "unit": "h⁻¹"}
    ]},
    {"smiles": "NC(=O)c1cc(N2CC2)c([N+](=O)[O-])cc1NO", "note": "[compound 2]", "values": [
      {"measurement": "AA8/UV4 intra-experiment IC50 ratio", "setting": "[3]", "value": 3.4},
      {"measurement": "Bioactivity of HPLC fraction against UV4 cells", "setting": "[11]", "value": "significant cytotoxicity"},
      {"measurement": "Appearance of metabolite in donor and receiver compartments", "setting": "[12]", "value": "not detected in either compartment"},
      {"measurement": "IC50", "setting": "[7]", "value": 22, "unit": "µM"},
      {"measurement": "IC50", "setting": "[8]", "value": 6.3, "unit": "µM"}
    ]},
    {"smiles": "NC(=O)c1cc(N(CCCl)CCCl)c([N+](=O)[O-])cc1NO", "note": "[compound 8]", "values": [
      {"measurement": "AA8/UV4 intra-experiment IC50 ratio", "setting": "[3]", "value": "51±1"},
      {"measurement": "IC50", "setting": "[4]", "value": "2.07 ± 0.08", "unit": "µM"},
      {"measurement": "IC50", "setting": "[5]", "value": "1.2 ± 0.1", "unit": "µM"},
      {"measurement": "IC50", "setting": "[6]", "value": "1.74 ± 0.23", "unit": "µM"},
      {"measurement": "IC50", "setting": "[7]", "value": "2.3 ± 0.1", "unit": "µM"},
      {"measurement": "IC50", "setting": "[8]", "value": "0.045 ± 0.001", "unit": "µM"}
    ]},
    {"smiles": "NC(=O)c1cc(N2CC2)c(NO)cc1[N+](=O)[O-]", "note": "[compound 4, 5-(aziridin-1-yl)-4-hydroxylamino-2-nitrobenzamide]", "values": [
      {"measurement": "AA8/UV4 intra-experiment IC50 ratio", "setting": "[3]", "value": "63 and 63±5"},
      {"measurement": "Fold less potent in the four repair competent cell lines than in UV4", "setting": "[3]", "value": "11–70 fold"},
      {"measurement": "Bioactivity of HPLC fraction against UV4 cells", "setting": "[11]", "value": "greatest activity"},
      {"measurement": "Appearance of metabolite in donor and receiver compartments", "setting": "[12]", "value": "not detected at all in the receiver compartment"},
      {"measurement": "IC50", "setting": "[4]", "value": "45 ± 9", "unit": "µM"},
      {"measurement": "IC50", "setting": "[5]", "value": "26 ± 5", "unit": "µM"},
      {"measurement": "IC50", "setting": "[6]", "value": "6.9 ± 0.6", "unit": "µM"},
      {"measurement": "IC50", "setting": "[7]", "value": "39 ± 6", "unit": "µM"},
      {"measurement": "IC50", "setting": "[8]", "value": "0.62 ± 0.05", "unit": "µM"},
      {"measurement": "Appearance in the receiver compartment in the presence of an MCL vs bare support membrane", "setting": "[13]", "value": "greatly reduced"}
    ]},
    {"smiles": "NC(=O)c1cc(N2CC2)c(N)cc1[N+](=O)[O-]", "note": "[compound 5]", "values": [
      {"measurement": "AA8/UV4 intra-experiment IC50 ratio", "setting": "[3]", "value": "1.2±0.1"},
      {"measurement": "Bioactivity of HPLC fraction against UV4 cells", "setting": "[11]", "value": "significant cytotoxicity"},
      {"measurement": "Appearance of metabolite in donor and receiver compartments", "setting": "[12]", "value": "accumulated in both compartments"},
      {"measurement": "IC50", "setting": "[4]", "value": "163 ± 39", "unit": "µM"},
      {"measurement": "IC50", "setting": "[5]", "value": "141 ± 34", "unit": "µM"},
      {"measurement": "IC50", "setting": "[6]", "value": "238 ± 6", "unit": "µM"},
      {"measurement": "IC50", "setting": "[7]", "value": "62 ± 12", "unit": "µM"},
      {"measurement": "IC50", "setting": "[8]", "value": "47 ± 5", "unit": "µM"}
    ]},
    {"smiles": "NC(=O)c1cc(N2CC2)c([N+](=O)[O-])cc1N", "note": "[compound 3]", "values": [
      {"measurement": "Bioactivity of HPLC fraction against UV4 cells", "setting": "[11]", "value": "significant cytotoxicity"},
      {"measurement": "Appearance of metabolite in donor and receiver compartments", "setting": "[12]", "value": "accumulated in both compartments"},
      {"measurement": "Initial flux of metabolite", "setting": "[12]; human", "value": "~0.2", "unit": "µM/h"},
      {"measurement": "IC50", "setting": "[4]", "value": "7.9 ± 3.3", "unit": "µM"},
      {"measurement": "IC50", "setting": "[5]", "value": "21 ± 3", "unit": "µM"},
      {"measurement": "IC50", "setting": "[6]", "value": "56 ± 7", "unit": "µM"},
      {"measurement": "IC50", "setting": "[7]", "value": "28 ± 8", "unit": "µM"},
      {"measurement": "IC50", "setting": "[8]", "value": "3.7 ± 0.7", "unit": "µM"}
    ]},
    {"smiles": "NC(=O)c1cc(N2CC2)c([N+](=O)[O-])cc1[N+](=O)[O-]", "note": "[compound 1, 5-(aziridin-1-yl)-2,4-dinitrobenzamide, reference compound]", "values": [
      {"measurement": "First-order rate constant k of metabolic consumption", "setting": "[1]; Chinese hamster", "value": "0.0010 ± 0.0004", "unit": "h⁻¹"},
      {"measurement": "First-order rate constant k of metabolic consumption", "setting": "[2]; Chinese hamster", "value": "0.08 ± 0.03", "unit": "h⁻¹"},
      {"measurement": "Bioactivity of HPLC fraction against UV4 cells", "setting": "[11]; extracellular medium of V79-NTR^puro suspensions (5 × 10^6 ml^−1, 3 h) with CB 1954", "value": "weak cytotoxicity"},
      {"measurement": "IC50", "setting": "[4]", "value": "277 ± 36", "unit": "µM"},
      {"measurement": "IC50", "setting": "[5]", "value": "485 ± 34", "unit": "µM"},
      {"measurement": "IC50", "setting": "[6]", "value": "2950 ± 113", "unit": "µM"},
      {"measurement": "IC50", "setting": "[7]", "value": "2480 ± 260", "unit": "µM"},
      {"measurement": "IC50", "setting": "[8]", "value": "135 ± 28", "unit": "µM"},
      {"measurement": "First-order rate constant k of metabolic consumption", "setting": "[9]", "value": "0.0066 ± 0.0001", "unit": "h⁻¹"},
      {"measurement": "First-order rate constant k of metabolic consumption", "setting": "[10]", "value": "0.22 ± 0.06", "unit": "h⁻¹"}
    ]}
  ]
}
